Test results published in patent US20110136259A1, “IMMUNOASSAY FOR CROSS-REACTING SUBSTANCES” (LIFE TECHNOLOGIES CORPORATION, priority 2007, published 2011).
Each block holds one compound with its values, some of them ahead of it.

Assays:
[1] = tested on: Beckmann Access (commercial cortisol immunoassay); assay: Synthetic glucocorticoid cross reactivity in Beckman Access cortisol immunoassay; assay type: binding; set-up: Access Cortisol Value: unit: ng/mL; settings: for Access Cortisol Value: Method 1: all synthetics present at 2000 ng/mL, apparent cortisol read by Beckmann Access; for Percent cross reactivity, Access: determined by 2000 ng/mL sample; for % Reactivity (Method 2): serial dilutions 1:2, 1:4, 1:8 and 1:16, linear analysis evaluation; for % Reactivity (Method 1): synthetic present at 2000 ng/mL, (cortisol value)/(concentration of analyte) x 100%
Experimental: Initial synthetic glucocorticoid antibody cross reactivity data included LC-MS/MS analysis of patient samples was followed by analysis via the Beckman immunoassay system, and relative cross reactivities were calculated for each of the synthetic glucocorticoids of interest. Cross reactivities were also calculated based on a linearity study of each of the major cross reactive synthetic glucocorticoids to ensure that the values obtained for each were viable. (Table 1).
(§1) LC-MS/MS analysis of patient samples was followed by analysis using the Beckman Access (commercial assay), and relative cross reactivities were calculated for each of the synthetic glucocorticoids of interest. Synthetic positive patient samples were then mimicked in stripped serum for cortisol, cortisone and exogenous synthetic glucocorticoids. […] The linear relationship for these systems was examined and illustrated.

[2] = tested on: Antibody 7 (clone XM210 from Abcam); assay: Cross reactivity on anti-cortisol antibody microarray, antibody 7; assay type: binding; settings: for Percent cross reactivity, antibody 7: determined by 2000 ng/mL sample; for % cross reactivity, antibody 7: from slopes of ([apparent cortisol] vs [cross reactant])
Text: (§2) The independent variables, these are x1 and x2 in the model are the various concentrations levels, where x1 is the concentration level of cortisol and x2 is the concentration level of the cross-reactant (in this case either 6AMP or prednisolone). The dependent variable, i.e. the variable that we are trying to predict, is the “apparent” cortisol concentration, which is estimated from the concentration-signal 4 parameter logistic regression model. […] These equations are given by,
(§3) In terms of the model β1 is interpreted as the amount that the “apparent” cortisol is increase per ng/ml increase of cortisol and similarly β2 is interpreted as the amount that the “apparent” cortisol is increased per ng/ml increase of cross-reactant. Finally to estimate the percent cross action it is given by:
(§4) The antibody concentrations were 125 ug/mL in buffered solutions comprising phosphate-buffered saline (PBS) and 1× Whatman Protein Arraying Buffer. The antibody solutions were applied to the slide surface using a Scienion sciflexarryer S5 piezo printer. The average spot sizes were 150 um. The antibodies within a sub array were printed in replicates of five spots, and each slide contained twelve sub arrays arranged in two columns of six. The relative spacing of the sub arrays was nine millimeters, equivalent to the spacing of a 96-well micro titer plate.
The micro-array slides were assembled with a superstructure that creates individual wells that surround the sub array (Slide Incubation Chambers, Whatman). The slides were blocked for one hour with micro array blocking buffer (VWR) and then washed with TRIS-buffered saline with Tween-20 (TBST). Cortisol-containing samples or calibrators were diluted 1 to 20 into a buffered solution that contained the following: TBST, 0.1% SDS, 3.3 nM cortisol 3-CMO Alexa Fluor 555, and 3.3 nM cortisol 21-HS Alexa Fluor 647. One-hundred micro liters of the assay mixture was applied to an individual well on the micro-array slide, and the assay was allowed to proceed for one hour at room temperature in the dark with gentle shaking on a micro-titer plate shaker. The assay mixture was removed, and the slides were washed with TBST, water, and then dried by spinning in a centrifuge. The intensities of fluorescence associated with each spot was quantified using a micro-array reader such as an Axon 4000B or 4200AL. The spot intensities for the calibrators were used to generate a standard curve by fitting the data to a four-parameter logistic model. The concentrations of the cortisol-containing patient samples or synthetic samples were interpolated using the logistic-fit equation. […]

antibody 17 = assay: Cross reactivity on anti-cortisol antibody microarray, antibody 17; assay type: binding; settings: for Percent cross reactivity, antibody 17: determined by 2000 ng/mL sample; for % cross reactivity, antibody 17: from slopes of ([apparent cortisol] vs [cross reactant])
Text: (§5) This model is used to estimate the cross-reaction percentage. The independent variables, these are x1 and x2 in the model are the various concentrations levels, where x1 is the concentration level of cortisol and x2 is the concentration level of the cross-reactant (in this case either 6AMP or prednisolone). The dependent variable, i.e. the variable that we are trying to predict, is the “apparent” cortisol concentration, which is estimated from the concentration-signal 4 parameter logistic regression model. We fit this model using standard multiple linear regression methods to estimate β1 and β2. These equations are given by,
as §3, §4
(§6) The micro-array slides were assembled with a superstructure that creates individual wells that surround the sub array (Slide Incubation Chambers, Whatman). The slides were blocked for one hour with micro array blocking buffer (VWR) and then washed with TRIS-buffered saline with Tween-20 (TBST). Cortisol-containing samples or calibrators were diluted 1 to 20 into a buffered solution that contained the following: TBST, 0.1% SDS, 3.3 nM cortisol 3-CMO Alexa Fluor 555, and 3.3 nM cortisol 21-HS Alexa Fluor 647. One-hundred micro liters of the assay mixture was applied to an individual well on the micro-array slide, and the assay was allowed to proceed for one hour at room temperature in the dark with gentle shaking on a micro-titer plate shaker. The assay mixture was removed, and the slides were washed with TBST, water, and then dried by spinning in a centrifuge. The intensities of fluorescence associated with each spot was quantified using a micro-array reader such as an Axon 4000B or 4200AL. The spot intensities for the calibrators were used to generate a standard curve by fitting the data to a four-parameter logistic model. The concentrations of the cortisol-containing patient samples or synthetic samples were interpolated using the logistic-fit equation.
(§7) Subsequently, several cortisol antibodies were synthesized and relative cross reactivities were determined for the synthetic glucocorticoids obtained via the same described the Beckmann system (Tables 4 & 5). Cortisol antibodies should have specificity to distinguish the differences in the A ring of the steroid molecules shown below.

[3] = LC-MS/MS analysis of synthetic-positive patient samples; assay type: in vivo; settings: population of positive patient samples
Text: In the present method mass spectrometric methods were used to determine actual analyte levels in clinical patient populations. Some of these samples were subjected to the current immunoassay systems and the interference relationship was established. After identifying the most commonly present exogenous drugs present in the samples, this information was used toward establishing an assay, free from the limitations of the mass spec. deconvolution, that gives an accurate depiction of the analyte, such as cortisol, levels in a patient sample.
A population was drawn of positive synthetic patient samples once cross reactivities were determined for individual steroids (Table 2).
as §1

[4] = tested on: Antibody 10 (clone A29220314P from BiosPacific); assay: Cross reactivity on anti-cortisol antibody microarray, antibody 10; assay type: binding; settings: for Percent cross reactivity, antibody 10: determined by 2000 ng/mL sample; for % cross reactivity, antibody 10: from slopes of ([apparent cortisol] vs [cross reactant])
Text: as §2, §3, §4, §6, §7

antibody 13 = assay: Cross reactivity on anti-cortisol antibody microarray, antibody 13; assay type: binding; settings: for Percent cross reactivity, antibody 13: determined by 2000 ng/mL sample; for % cross reactivity, antibody 13: from slopes of ([apparent cortisol] vs [cross reactant])
Text: as §5, §3, §4, §6, §7

[5] = tested on: Antibody 9 (clone F4P1A3 from EMD Biosciences); assay: Cross reactivity on anti-cortisol antibody microarray, antibody 9; assay type: binding; settings: for Percent cross reactivity, antibody 9: determined by 2000 ng/mL sample; for % cross reactivity, antibody 9: from slopes of ([apparent cortisol] vs [cross reactant])
Text: as §2, §3, §4, §6, §7

antibody 21509 = assay: Cross reactivity on anti-cortisol antibody microarray, antibody 21509; assay type: binding; settings: from slopes of ([apparent cortisol] vs [cross reactant])
Text: as §5
(§8) In terms of the model β1 is interpreted as the amount that the “apparent” cortisol is increase per ng/ml increase of cortisol and similarly β2 is interpreted as the amount that the “apparent” cortisol is increased per ng/ml increase of cross-reactant. […]
(§9) The micro-array slides were assembled with a superstructure that creates individual wells that surround the sub array (Slide Incubation Chambers, Whatman). […] The intensities of fluorescence associated with each spot was quantified using a micro-array reader such as an Axon 4000B or 4200AL. […]
(§10) Subsequently, several cortisol antibodies were synthesized and relative cross reactivities were determined for the synthetic glucocorticoids obtained via the same described the Beckmann system (Tables 4 & 5). […]

antibody ECB = assay: Cross reactivity on anti-cortisol antibody microarray, antibody ECB; assay type: binding; settings: from slopes of ([apparent cortisol] vs [cross reactant])
Text: as §5, §8, §9, §10

SMILES: C[C@]12C=CC(=O)C=C1CC[C@@H]1[C@@H]2C(=O)C[C@@]2(C)[C@H]1CC[C@]2(O)C(=O)CO [SYN-2, Prednisone]
Access Cortisol Value [1]: 50.8 | Percent cross reactivity, Access [1]: 3% | % Reactivity (Method 2) [1]: 2.2% | % Reactivity (Method 1) [1]: 2.54% | Percent cross reactivity, antibody 7 [2]: 1% | % cross reactivity, antibody 7 [2]: <1% | Percent cross reactivity, antibody 17 (antibody 17): 20% | Range of steroid concentration in synthetic positive patient samples [3]: 1.9 to 72 ng/mL | % cross reactivity, antibody 21509 (antibody 21509): <1% | Percent cross reactivity, antibody 10 [4]: 0% | % cross reactivity, antibody 10 [4]: 1% | Percent cross reactivity, antibody 13 (antibody 13): 1% | Percent cross reactivity, antibody 9 [5]: 21% | % cross reactivity, antibody 9 [5]: 26% | % cross reactivity, antibody ECB (antibody ECB): 1%

SMILES: CC1(C)O[C@@H]2C[C@H]3[C@@H]4CCC5=CC(=O)C=C[C@]5(C)[C@@]4(F)[C@@H](O)C[C@]3(C)[C@]2(C(=O)CO)O1 [SYN-3, Triamcinolone acetonide]
Range of steroid concentration in synthetic positive patient samples [3]: 0.3 to 2.3 ng/mL

SMILES: C[C@]12C=CC(=O)C=C1CC[C@H]1[C@@H]3C[C@@H](O)[C@](O)(C(=O)CO)[C@@]3(C)C[C@H](O)[C@@]12F [SYN-4, Triamcinolone]
Access Cortisol Value [1]: 1.1 | Percent cross reactivity, Access [1]: 0% | % Reactivity (Method 1) [1]: 0.055% | Percent cross reactivity, antibody 7 [2]: 0% | Percent cross reactivity, antibody 17 (antibody 17): 0% | Percent cross reactivity, antibody 10 [4]: 0% | Percent cross reactivity, antibody 13 (antibody 13): 0% | Percent cross reactivity, antibody 9 [5]: 1%

SMILES: C[C@]12CCC(=O)C=C1CC[C@@H]1[C@@H]2C(=O)C[C@@]2(C)[C@H]1CC[C@]2(O)C(=O)CO [SYN-6, Cortisone]
Access Cortisol Value [1]: 94 | Percent cross reactivity, Access [1]: 5% | % Reactivity (Method 2) [1]: 4.5% | % Reactivity (Method 1) [1]: 4.7% | Percent cross reactivity, antibody 7 [2]: 1% | % cross reactivity, antibody 7 [2]: 1% | Percent cross reactivity, antibody 17 (antibody 17): 11% | % cross reactivity, antibody 17 (antibody 17): 13% | Percent cross reactivity, antibody 10 [4]: 0% | % cross reactivity, antibody 10 [4]: <1% | Percent cross reactivity, antibody 13 (antibody 13): 1% | % cross reactivity, antibody 13 (antibody 13): 1% | Percent cross reactivity, antibody 9 [5]: 13% | % cross reactivity, antibody 9 [5]: 15%

SMILES: CC(=O)[C@@]1(O)CC[C@H]2[C@@H]3C[C@H](C)C4=CC(=O)C=C[C@]4(C)[C@@]3(F)[C@@H](O)C[C@@]21C [SYN-8, Fluorometholone]
Access Cortisol Value [1]: 0.8 | Percent cross reactivity, Access [1]: 0% | % Reactivity (Method 1) [1]: 0.04% | Percent cross reactivity, antibody 7 [2]: 0% | Percent cross reactivity, antibody 17 (antibody 17): 0% | Percent cross reactivity, antibody 10 [4]: 6% | Percent cross reactivity, antibody 13 (antibody 13): 0% | Percent cross reactivity, antibody 9 [5]: 0%

The next lines start with results.

Range of steroid concentration in synthetic positive patient samples [3]: 1.7 to 130 ng/mL
SMILES: C[C@H]1C[C@@H]2[C@H]([C@@H](O)C[C@@]3(C)[C@H]2CC[C@]3(O)C(=O)CO)[C@@]2(C)C=CC(=O)C=C12 [SYN-1, 6-a-methyl prednisolone]
Access Cortisol Value [1]: 34.4 | Percent cross reactivity, Access [1]: 2% | % Reactivity (Method 2) [1]: 1.4% | % Reactivity (Method 1) [1]: 1.72% | Percent cross reactivity, antibody 7 [2]: 9% | % cross reactivity, antibody 7 [2]: 7% | Percent cross reactivity, antibody 17 (antibody 17): 3% | % cross reactivity, antibody 17 (antibody 17): 1% | Percent cross reactivity, antibody 10 [4]: high | % cross reactivity, antibody 10 [4]: 109% | Percent cross reactivity, antibody 13 (antibody 13): 10% | % cross reactivity, antibody 13 (antibody 13): 6% | Percent cross reactivity, antibody 9 [5]: 2% | % cross reactivity, antibody 9 [5]: 2%

Range of steroid concentration in synthetic positive patient samples [3]: 0.6 to 640 ng/mL
SMILES: C[C@]12C=CC(=O)C=C1CC[C@@H]1[C@@H]2[C@@H](O)C[C@@]2(C)[C@H]1CC[C@]2(O)C(=O)CO [SYN-7, Prednisolone]
Access Cortisol Value [1]: 420.7 | Percent cross reactivity, Access [1]: 21% | % Reactivity (Method 2) [1]: 20.8% | % Reactivity (Method 1) [1]: 21.035% | Percent cross reactivity, antibody 7 [2]: 5% | % cross reactivity, antibody 7 [2]: 5% | Percent cross reactivity, antibody 17 (antibody 17): 14% | % cross reactivity, antibody 17 (antibody 17): 35% | Percent cross reactivity, antibody 10 [4]: 68% | % cross reactivity, antibody 10 [4]: 133% | Percent cross reactivity, antibody 13 (antibody 13): 4% | % cross reactivity, antibody 13 (antibody 13): 5% | Percent cross reactivity, antibody 9 [5]: 15% | % cross reactivity, antibody 9 [5]: 37%

Range of steroid concentration in synthetic positive patient samples [3]: 1.0 to 14.0 ng/mL
SMILES: C[C@@H]1C[C@H]2[C@@H]3CCC4=CC(=O)C=C[C@]4(C)[C@@]3(F)[C@@H](O)C[C@]2(C)[C@@]1(O)C(=O)CO [SYN-10, Dexamethasone]
